ChEMBL document CHEMBL3259536, “New 2H-chromene-3-carboxamide derivatives: design, synthesis and use as inhibitors of hMAO” (Eur J Med Chem, 2014)

Assays:
[1] = target: T1, Amine oxidase [flavin-containing] B (Homo sapiens, UniProt P27338); test: Inhibition of human recombinant MAO-B expressed in baculovirus infected insect cell microsomes assessed as p-tyramine conversion to resorufin and H2O2 after 15 mins by fluorimetric assay
T1 sequence (P27338 whole entry): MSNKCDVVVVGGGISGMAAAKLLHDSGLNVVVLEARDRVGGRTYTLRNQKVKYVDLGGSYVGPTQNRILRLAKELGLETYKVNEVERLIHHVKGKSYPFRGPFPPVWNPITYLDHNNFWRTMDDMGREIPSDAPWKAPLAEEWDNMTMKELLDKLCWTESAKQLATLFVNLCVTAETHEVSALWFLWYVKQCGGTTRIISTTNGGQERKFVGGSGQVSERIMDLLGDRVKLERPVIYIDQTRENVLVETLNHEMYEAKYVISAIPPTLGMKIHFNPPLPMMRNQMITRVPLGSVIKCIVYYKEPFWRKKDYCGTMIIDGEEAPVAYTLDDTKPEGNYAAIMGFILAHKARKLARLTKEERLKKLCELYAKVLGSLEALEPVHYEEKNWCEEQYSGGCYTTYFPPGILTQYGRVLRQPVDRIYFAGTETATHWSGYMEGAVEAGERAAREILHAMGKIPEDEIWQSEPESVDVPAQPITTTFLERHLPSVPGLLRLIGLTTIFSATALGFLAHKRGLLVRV

[2] = target: T2, Amine oxidase [flavin-containing] A (Homo sapiens, UniProt P21397); test: Inhibition of human recombinant MAO-A expressed in baculovirus infected insect cell microsomes assessed as p-tyramine conversion to resorufin and H2O2 after 15 mins by fluorimetric assay
T2 sequence (P21397 whole entry): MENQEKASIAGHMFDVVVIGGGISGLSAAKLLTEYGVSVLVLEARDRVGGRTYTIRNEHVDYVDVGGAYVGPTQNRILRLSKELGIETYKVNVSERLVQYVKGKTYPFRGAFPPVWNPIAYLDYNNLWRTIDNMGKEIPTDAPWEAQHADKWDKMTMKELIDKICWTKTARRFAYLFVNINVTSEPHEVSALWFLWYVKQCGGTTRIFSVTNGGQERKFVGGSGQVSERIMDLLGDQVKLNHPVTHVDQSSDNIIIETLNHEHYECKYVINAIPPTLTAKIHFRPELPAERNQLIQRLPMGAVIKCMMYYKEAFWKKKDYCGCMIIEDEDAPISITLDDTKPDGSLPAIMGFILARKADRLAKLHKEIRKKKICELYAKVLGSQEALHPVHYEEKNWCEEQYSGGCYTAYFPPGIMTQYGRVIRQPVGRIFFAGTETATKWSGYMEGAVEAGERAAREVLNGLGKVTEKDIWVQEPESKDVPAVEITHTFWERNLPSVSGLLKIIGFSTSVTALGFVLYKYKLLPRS

Homo sapiens = species on record: Homo sapiens; test: Selectivity index, ratio of IC50 for human recombinant MAO-A to IC50 for human recombinant MAO-B
[3] = target: T2, Amine oxidase [flavin-containing] A; test: Inhibition of human recombinant MAO-A expressed in baculovirus infected insect cell microsomes assessed as p-tyramine conversion to resorufin and H2O2 at 60 uM after 15 mins by fluorimetric assay; settings: 0.25 h
[4] = target: T1, Amine oxidase [flavin-containing] B; test: Inhibition of human recombinant MAO-B expressed in baculovirus infected insect cell microsomes assessed as p-tyramine conversion to resorufin and H2O2 at 60 uM after 15 mins by fluorimetric assay; settings: 0.25 h

| IC50 [1] [µM] | IC50 [2] [µM] | Ratio IC50 (Homo sapiens) | inhibition (INH) [3] | inhibition (INH) [4] | SMILES |
| --- | --- | --- | --- | --- | --- |
| 8.05 | 14.2 | 1.8 |  |  | CCCCCCN(CCCCCC)C(=O)c1cc2ccccc2oc1=O |
| 13.5 | 42.3 | 3.1 |  |  | O=C(NCCCN1CCOCC1)c1cc2ccccc2oc1=O |
| 10.6 | 32.4 | 3.1 |  |  | O=C(NCCCN1CCOCC1)c1cc2cc(Br)cc(Br)c2oc1=O |
| 46.1 |  | 1.3 | Not Active |  | O=C(NCCCN1CCOCC1)c1cc2cc([N+](=O)[O-])ccc2oc1=O |
|  |  |  | Not Active | Not Active | O=C(c1cc2cc(Br)cc(Br)c2oc1=O)N(c1ccccc1)c1ccccc1 |
| 35.4 |  | 1.7 | Not Active |  | COc1ccccc1NC(=O)c1cc2ccccc2oc1=O |
|  |  |  | Not Active |  | Cc1cccc(NC(=O)c2cc3ccccc3oc2=O)c1 |
| 7.09 |  | 8.46 | Not Active |  | O=C(Nc1cccc(C(F)(F)F)c1)c1cc2cc(Br)cc(Br)c2oc1=O |
| 14.7 | 31.5 | 2.1 |  |  | CC(C)(C)NC(=O)c1cc2cc(Br)cc(Br)c2oc1=O |
| 39.1 |  | 1.5 | Not Active |  | Cc1cccc(NC(=O)c2cc3cc([N+](=O)[O-])ccc3oc2=O)c1 |
| 19.1 | 37.5 | 1.97 |  |  | CCC(C)NC(=O)c1cc2cc([N+](=O)[O-])ccc2oc1=O (centres undefined) |
| 22.8 |  | 2.6 | Not Active |  | O=C(Nc1cccc(C(F)(F)F)c1)c1cc2cc([N+](=O)[O-])ccc2oc1=O |
|  |  |  | Not Active | Not Active | O=C(c1cc2ccccc2oc1=O)N(c1ccccc1)c1ccccc1 |
| 29.4 |  | 2 | Not Active |  | Cc1ccccc1NC(=O)c1cc2cc([N+](=O)[O-])ccc2oc1=O |
| 50 |  | 1.2 | Not Active |  | COc1ccccc1NC(=O)c1cc2cc([N+](=O)[O-])ccc2oc1=O |
| 21.5 |  | 2.78 | Not Active |  | Cc1cccc(NC(=O)c2cc3cc(Br)cc(Br)c3oc2=O)c1 |
| 4.68 |  | 12.8 | Not Active |  | Cc1ccccc1NC(=O)c1cc2cc(Br)cc(Br)c2oc1=O |
|  |  |  | Not Active |  | O=C(Nc1cccc(C(F)(F)F)c1)c1cc2ccccc2oc1=O |
| 20.2 |  | 2.97 | Not Active |  | COc1ccccc1NC(=O)c1cc2cc(Br)cc(Br)c2oc1=O |
| 2.96 |  | 20.3 | Not Active |  | Cc1ccccc1NC(=O)c1cc2ccccc2oc1=O |
